Like-named read-outs stand apart in the source and are kept apart here.
How the values were obtained:
Stagonospora nodorum = experiment: Test D: wheat glume blotch, preventive spray on wheat seedlings; settings: wheat glume blotch, 100 = 100% disease control, 0 = no control
Botrytis cinerea = experiment: Test B: gray mold, preventive spray on tomato seedlings; settings: gray mold on tomato, 100 = 100% disease control, 0 = no control
Excerpt: (§1) General protocol for preparing test solutions for Tests A-G: the test compounds were first dissolved in acetone in an amount equal to 3% of the final volume and then suspended at the desired concentration (in ppm) in acetone and purified water (50/50 mix by volume) containing 250 ppm of the surfactant PEG400 (polyhydric alcohol esters). The resulting test suspensions were then used in Tests A-G. Compounds were sprayed at a concentration of 50 ppm (*) or 10 ppm to the point of run-off on the test plants, the equivalent of a rate of 200 g/ha or 40 g/ha, respectively.
The test solution was sprayed to the point of run-off on tomato seedlings. The following day the seedlings were inoculated with a spore suspension of Botrytis cinerea (the causal agent of gray mold on many crops) and incubated in a saturated atmosphere at 20° C. for 48 h, and moved to a growth chamber at 27° C. for 2 days, after which time visual disease ratings were made.
(§2) Compounds with an asterisks (*) were applied at a concentration of 50 ppm, otherwise test solutions were applied at 10 ppm.

[1] = system: Erysiphe graminis f sp. tritici; experiment: Test G: wheat powdery mildew, preventive spray on wheat seedlings; settings: wheat powdery mildew, 100 = 100% disease control, 0 = no control
Excerpt: as §1
The test solution was sprayed to the point of run-off on wheat seedlings. The following day the seedlings were inoculated with a spore dust of Erysiphe graminis f sp. tritici, (the causal agent of wheat powdery mildew) and incubated in a growth chamber at 20° C. for 8 days, after which time visual disease ratings were made.
as §2

Plasmopara viticola = experiment: Test A: grape downy mildew, preventive spray on grape seedlings; format: in vivo; settings: 100 = 100% disease control, 0 = no control
Excerpt: A dash (-) indicates no test results.

Zymoseptoria tritici = experiment: Test E: wheat leaf blotch, preventive spray on wheat seedlings; settings: wheat leaf blotch, 100 = 100% disease control, 0 = no control
Phytophthora infestans = format: in vivo; settings: tomato late blight, 100 = 100% disease control, 0 = no control
[2] = system: Puccinia recondita f sp. tritici; experiment: Test F: wheat leaf rust, preventive spray on wheat seedlings; settings: wheat leaf rust, 100 = 100% disease control, 0 = no control

Row | SMILES | Test D rating (% disease control) (Stagonospora nodorum; 10 ppm) [%] | Test B rating (% disease control) (Botrytis cinerea; 10 ppm) [%] | Test G rating (% disease control) ([1]; 10 ppm) [%] | Test A rating (% disease control) (Plasmopara viticola; 10 ppm) [%] | Test E rating (% disease control) (Zymoseptoria tritici; 10 ppm) [%] | Test C rating (% disease control) (Phytophthora infestans; 10 ppm) [%] | Test F rating (% disease control) ([2]; 10 ppm) [%] | Test D rating (% disease control) (Stagonospora nodorum; 50 ppm (asterisk)) [%] | Test B rating (% disease control) (Botrytis cinerea; 50 ppm (asterisk)) [%] | Test G rating (% disease control) ([1]; 50 ppm (asterisk)) [%] | Test A rating (% disease control) (Plasmopara viticola; 50 ppm (asterisk)) [%] | Test E rating (% disease control) (Zymoseptoria tritici; 50 ppm (asterisk)) [%] | Test C rating (% disease control) (Phytophthora infestans; 50 ppm (asterisk)) [%] | Test F rating (% disease control) ([2]; 50 ppm (asterisk)) [%]
1 | OC(Cn1cncn1)(C1=NOC(c2ccc(-n3cncn3)cc2)C1)c1ccc(Cl)cc1 (mixture of isomers) [Compound 2] | 0 | 0 | 99 | 33 | 0 | 0 | 100 | – | – | – | – | – | – | –
2 | CCC(O)(Cn1cncn1)C1=NOC(c2ccc(Cl)cc2)C1 (mixture of isomers) [Compound 34] | – | – | – | – | – | – | – | 99 | 0 | 100 | 34 | 0 | 0 | 53
3 | CC(C)C(O)(Cn1cncn1)C1=NOC(c2ccc(Cl)cc2)C1 (single isomer, unassigned) [Compound 3] | 100 | 46 | 100 | 9 | 0 | 0 | 97 | – | – | – | – | – | – | –
4 | CC(C)C(O)(Cn1cncn1)C1=NOC(c2ccc(Cl)cc2)C1 (single isomer, unassigned) [Compound 4] | 100 | 9 | 99 | 0 | 0 | 0 | 98 | – | – | – | – | – | – | –
5 | CC(O)(Cn1cncn1)C1=NOC(c2ccc(Cl)cc2)C1 (single isomer, unassigned) [Compound 35] | – | – | – | – | – | – | – | 63 | 0 | 100 | 21 | 0 | 0 | 40
6 | CC(O)(Cn1cncn1)C1=NOC(c2ccc(Cl)cc2)C1 (single isomer, unassigned) [Compound 36] | – | – | – | – | – | – | – | 53 | 0 | 99 | 11 | 0 | 0 | 17
7 | OC(Cn1cncn1)(C1=NOC(COc2ccc(Cl)cc2)C1)c1ccc(Cl)cc1 (single isomer, unassigned) [Compound 61] | 94 | 0 | 100 | 4 | 99 | 0 | 100 | – | – | – | – | – | – | –
8 | OC(Cn1cncn1)(C1=NOC(COc2ccc(Cl)cc2)C1)c1ccc(Cl)cc1 (single isomer, unassigned) [Compound 62] | 0 | 0 | 96 | 3 | 0 | 0 | 92 | – | – | – | – | – | – | –
9 | OC(Cn1cncn1)(C1=NOC(COc2ccc(C(F)(F)F)cc2)C1)c1ccc(Cl)cc1 (single isomer, unassigned) [Compound 63] | 41 | 0 | 100 | 3 | 97 | 0 | 100 | – | – | – | – | – | – | –
10 | OC(Cn1cncn1)(C1=NOC(COc2ccc(C(F)(F)F)cc2)C1)c1ccc(Cl)cc1 (single isomer, unassigned) [Compound 64] | 50 | 0 | 94 | 12 | 2 | 0 | 80 | – | – | – | – | – | – | –
11 | OC(Cn1cncn1)(C1=NOC(Cn2ccc(-c3ccc(Cl)cc3)n2)C1)c1ccc(Cl)cc1 (single isomer, unassigned) [Compound 65] | 0 | 0 | 98 | 3 | 0 | 0 | 100 | – | – | – | – | – | – | –
12 | OC(Cn1cncn1)(C1=NOC(Cn2ccc(-c3ccc(Cl)cc3)n2)C1)c1ccc(Cl)cc1 (single isomer, unassigned) [Compound 66] | 0 | 0 | 97 | 3 | 1 | 0 | 98 | – | – | – | – | – | – | –
13 | OC(Cn1cncn1)(C1=NOC(Cn2ccc(-c3ccc(C(F)(F)F)cc3)n2)C1)c1ccc(Cl)cc1 (single isomer, unassigned) [Compound 67] | 0 | 0 | 99 | 13 | 0 | 0 | 100 | – | – | – | – | – | – | –
14 | OC(Cn1cncn1)(C1=NOC(Cn2ccc(-c3ccc(C(F)(F)F)cc3)n2)C1)c1ccc(Cl)cc1 (single isomer, unassigned) [Compound 68] | 0 | 0 | 95 | 3 | 2 | 0 | 99 | – | – | – | – | – | – | –
15 | CCCC(O)(Cn1cncn1)C1=NOC(c2ccc(Cl)cc2)C1 (single isomer, unassigned) [Compound 82] | 99 | 33 | 100 | 1 | 0 | 0 | 98 | – | – | – | – | – | – | –
16 | CCCC(O)(Cn1cncn1)C1=NOC(c2ccc(Cl)cc2)C1 (single isomer, unassigned) [Compound 83] | 87 | 0 | 99 | 1 | 0 | 0 | 99 | – | – | – | – | – | – | –
17 | C=CCC(O)(Cn1cncn1)C1=NOC(c2ccc(Cl)cc2)C1 (single isomer, unassigned) [Compound 84] | 73 | 94 | 95 | 11 | 0 | 0 | 9 | – | – | – | – | – | – | –
18 | C=CCC(O)(Cn1cncn1)C1=NOC(c2ccc(Cl)cc2)C1 (single isomer, unassigned) [Compound 85] | 68 | 0 | 87 | 19 | 0 | 0 | 0 | – | – | – | – | – | – | –
19 | OC(Cc1ccc(Cl)cc1)(Cn1cncn1)C1=NOC(c2ccc(Cl)cc2)C1 (single isomer, unassigned) [Compound 93] | 99 | 0 | 100 | 0 | 4 | 0 | 100 | – | – | – | – | – | – | –
20 | OC(Cc1ccc(Cl)cc1)(Cn1cncn1)C1=NOC(c2ccc(Cl)cc2)C1 (single isomer, unassigned) [Compound 94] | 98 | 0 | 99 | 0 | 0 | 0 | 100 | – | – | – | – | – | – | –

— patent US20160242416A1, “FUNGICIDAL ISOXAZOLINE CARBINOLS” (E I DU PONT DE NEMOURS AND COMPANY, priority 2015, published 2016)
